Bridges are numbered along the chain shown (N, C = ends). Roman numbers before positions name the chains, in order. Where no end group is shown, it is not given here.
Key:
[1] = format: in vitro ADME, human
Method: EDTA plasma of healthy human subjects and human BNP plasma specimens were obtained from ProMedDx LLC (Norton, Mass.), shipped on dry ice, and stored at −70° C. before use.
In this study, human BNP degradation products in human BNP specimens and the impact of temperature on degradation was studied. Prior to sample extractions for analysis, each sample was split into two vials and incubated at room temperature for 0 hours (t=0 hour) and 48 hours (t=48 hours), respectively. The samples were then extracted using the methodology described in Example 4 and analyzed by the API 4000.
Experiments were conducted to determine if human BNP n-32 fragments (where n is an interger b=1, 2, 3, 4, 5, 6) were present in the specimen and to evaluate whether aminopeptidase type protease is involved in human BNP degradation. The samples were prepared and analyzed using the same methodology as described in Example 4, except that samples were monitored for human BNP n-32 fragments (n=1, 2, 3, 4, 5, 6[…]).
Next, to determine if ring cleavage products were present, human BNP fragment 5-32x was then monitored prior to and after incubation at room temperature. The samples were not monitored for other human BNP n-32x fragments since these fragments would be formed by the same process as human BNP 5-32x fragments. Additionally, monitoring for more fragments would reduce the detection sensitivity of the method.
Using both of these approaches, human BNP fragments prior to and after room temperature incubation were monitored for both human BNP n-32 fragments and human BNP n-32x fragments for 20 samples.

[2] = Degradation time course of human BNP 1-32 spiked in pooled EDTA plasma of healthy human subjects, LC/MS
Source text: An aliquot of the mixture was taken at various time points with protease inhibitor added and frozen immediately. Samples were extracted along with an internal standard (the internal standard was a biotinylated human BNP mutant. In this mutant, amino acid 32 (histidine) was replaced by alanine and is hereinafter referred to as “Biotin-BNP1-32 (H32A)”) by a monoclonal antibody 106.3 (hereinafter referred to as “mAb 106.3”) coated magnetic microparticles and released human BNP and fragments were analyzed by LC/MS. The relative abundance of each fragments were plotted.
To study human BNP degradation near physiological concentration, an API4000 LC/MS system (Applied Biosystems, Foster City, Calif.) equipped with Agilent 1100 HPLC was used to determine the degradation of human BNP spiked at 5 ng/mL in a pooled normal EDTA plasma. […] The major human BNP degradation products (namely, 1-32, 3-32, 3-30, and 3-30x) and kinetics were analyzed by LC/MS using selected ion monitoring mode according to instrument protocol. […]
The relative concentration of human BNP fragments 3-32, 3-30 and 3-30x were monitored at various time points (0.5, 4, 6, 8, 10, 24 hours). Triply charged human BNP peptides and human BNP fragments, namely, 1-32, 3-32, 3-30, and 3-30x were monitored at m/z 1155.6, 1094.6.

[3] = format: in vitro ADME, human; remark: listed apart in the source
Method: Human BNP was spiked into Human BNP specimens (EDTA plasma) using the same procedure as in Example 2, and the spiked samples were studied using the same methodology as in Example 4. […] However, the cleavage rates appeared to be slower in the heart-failure patient samples: after 8 hours incubation at the room temperature, 80% of the degradation products still contain the C-terminus (human BNP fragment 3-32, human BNP 1-32, and human BNP fragments 3-32X and 1-32x). When the same concentration of human BNP was spiked into a pooled EDTA plasma of healthy human subjects, only 5% of the fragments contain intact C-terminus after 4 hours incubation at room temperature (See, Example 5).

Molecule | Human BNP fragment Peak high ranking (T = 0 hours) [1] | major cleavage product after incubation at room temperature [1] | relative concentration over the time course of study ([2]; human BNP spiked at 5 ng/mL in pooled normal EDTA plasma, room temperature, 0.5-24 hours (FIG. 7)) | fragments that contain intact C-terminus ([2]; human BNP spiked in pooled EDTA plasma of healthy human subjects, after 4 hours incubation at room temperature) | degradation products that still contain the C-terminus [3]
3-30x: Human BNP Fragment Composition: 3-30 with ring cleavage, two fragments (e.g. BNP3-17 and BNP18-30) cross-linked by disulfide bond (chain 1 KMVQGSGCFGRKMDR; chain 2 ISSSSGLGCKVLR; disulfide I:8-II:9 (inferred)) | 5 | – | – | – | –
5-30x: Human BNP Fragment Composition 5-30x: ring-cleaved, cross-linked form of fragment 5-30 | 4 | – | – | – | –
5-32x: ring-cleaved, cross-linked form of human BNP fragment 5-32 | – | become the major product | – | – | –
CC[C@H](C)[C@@H]1NC(=O)[C@H](CCCNC(=N)N)NC(=O)[C@H](CC(=O)O)NC(=O)[C@H](CCSC)NC(=O)[C@H](CCCCN)NC(=O)[C@H](CCCNC(=N)N)NC(=O)CNC(=O)[C@H](Cc2ccccc2)NC(=O)[C@@H](NC(=O)CNC(=O)[C@H](CO)NC(=O)CNC(=O)[C@H](CCC(N)=O)NC(=O)[C@@H](NC(=O)[C@H](CCSC)NC(=O)[C@H](CCCCN)NC(=O)[C@@H]2CCCN2C(=O)[C@@H](N)CO)C(C)C)CSSC[C@@H](C(=O)N[C@@H](CCCCN)C(=O)N[C@H](C(=O)N[C@@H](CC(C)C)C(=O)N[C@@H](CCCN=C(N)N)C(=O)N[C@@H](CCCN=C(N)N)C(=O)N[C@@H](Cc2cnc[nH]2)C(=O)O)C(C)C)NC(=O)CNC(=O)[C@H](CC(C)C)NC(=O)CNC(=O)[C@H](CO)NC(=O)[C@H](CO)NC(=O)[C@H](CO)NC(=O)[C@H](CO)NC1=O [1-32] | 3 | – | decreased drastically | 5% | 80%

— US8013112B2, “Compositions comprising human brain natriuretic peptide (BNP) fragments” (Abbott Laboratories, priority 2006, dated 2011)
